Experiments:
Assay in all cases: biochemical
[1] = molecular target: T1, NDR1 (Homo sapiens, UniProt Q15208); set-up: functional kinase inhibition IC50 (Reaction Biology)
T1 construct: gene STK38

[2] = molecular target: T2, PKA (Homo sapiens, UniProt P17612); set-up: functional kinase inhibition IC50 (Reaction Biology)
T2 construct: gene PRKACA

[3] = molecular target: T3, PKCepsilon (Homo sapiens, UniProt Q02156); set-up: functional kinase inhibition IC50 (Reaction Biology)
T3 construct: gene PRKCE

[4] = molecular target: T4, ROCK1 (Homo sapiens, UniProt Q13464); set-up: functional kinase inhibition IC50 (Reaction Biology)
T4 sequence (Q13464 whole entry): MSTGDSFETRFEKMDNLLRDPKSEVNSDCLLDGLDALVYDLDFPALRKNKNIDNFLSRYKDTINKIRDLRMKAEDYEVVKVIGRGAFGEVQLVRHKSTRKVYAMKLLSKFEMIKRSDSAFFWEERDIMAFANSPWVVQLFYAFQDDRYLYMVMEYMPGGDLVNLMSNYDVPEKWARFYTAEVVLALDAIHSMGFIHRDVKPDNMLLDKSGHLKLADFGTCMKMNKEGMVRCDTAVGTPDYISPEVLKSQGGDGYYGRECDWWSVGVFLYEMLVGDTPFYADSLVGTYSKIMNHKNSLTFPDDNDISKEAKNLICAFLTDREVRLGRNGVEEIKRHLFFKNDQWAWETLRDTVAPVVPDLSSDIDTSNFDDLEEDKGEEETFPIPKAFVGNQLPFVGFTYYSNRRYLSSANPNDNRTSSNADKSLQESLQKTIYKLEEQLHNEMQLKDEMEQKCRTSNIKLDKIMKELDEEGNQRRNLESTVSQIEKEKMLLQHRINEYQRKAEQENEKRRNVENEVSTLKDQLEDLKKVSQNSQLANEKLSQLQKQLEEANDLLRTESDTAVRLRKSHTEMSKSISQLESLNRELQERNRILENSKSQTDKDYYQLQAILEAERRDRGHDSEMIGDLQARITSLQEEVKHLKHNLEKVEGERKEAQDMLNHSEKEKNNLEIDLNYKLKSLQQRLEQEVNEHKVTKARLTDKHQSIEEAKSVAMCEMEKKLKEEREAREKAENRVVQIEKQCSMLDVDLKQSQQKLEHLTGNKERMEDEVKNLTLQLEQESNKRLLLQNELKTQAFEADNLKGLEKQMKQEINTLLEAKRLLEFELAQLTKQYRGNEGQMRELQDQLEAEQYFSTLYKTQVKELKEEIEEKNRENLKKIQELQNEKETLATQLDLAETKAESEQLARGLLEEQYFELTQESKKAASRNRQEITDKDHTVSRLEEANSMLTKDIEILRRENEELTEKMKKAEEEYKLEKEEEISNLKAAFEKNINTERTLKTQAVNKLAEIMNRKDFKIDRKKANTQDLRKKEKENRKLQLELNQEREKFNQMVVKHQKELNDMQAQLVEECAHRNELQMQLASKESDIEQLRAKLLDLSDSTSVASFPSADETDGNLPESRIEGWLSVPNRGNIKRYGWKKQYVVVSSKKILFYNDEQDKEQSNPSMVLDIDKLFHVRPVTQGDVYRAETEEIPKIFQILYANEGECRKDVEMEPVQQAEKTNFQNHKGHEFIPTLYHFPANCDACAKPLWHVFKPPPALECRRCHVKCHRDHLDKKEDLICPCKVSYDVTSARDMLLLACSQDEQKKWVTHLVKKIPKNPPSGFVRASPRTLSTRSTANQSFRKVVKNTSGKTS

[5] = molecular target: DYRK1B (Homo sapiens, UniProt Q9Y463); conditions: read-out: % inhibition
DYRK1B, sequence (Q9Y463 whole entry): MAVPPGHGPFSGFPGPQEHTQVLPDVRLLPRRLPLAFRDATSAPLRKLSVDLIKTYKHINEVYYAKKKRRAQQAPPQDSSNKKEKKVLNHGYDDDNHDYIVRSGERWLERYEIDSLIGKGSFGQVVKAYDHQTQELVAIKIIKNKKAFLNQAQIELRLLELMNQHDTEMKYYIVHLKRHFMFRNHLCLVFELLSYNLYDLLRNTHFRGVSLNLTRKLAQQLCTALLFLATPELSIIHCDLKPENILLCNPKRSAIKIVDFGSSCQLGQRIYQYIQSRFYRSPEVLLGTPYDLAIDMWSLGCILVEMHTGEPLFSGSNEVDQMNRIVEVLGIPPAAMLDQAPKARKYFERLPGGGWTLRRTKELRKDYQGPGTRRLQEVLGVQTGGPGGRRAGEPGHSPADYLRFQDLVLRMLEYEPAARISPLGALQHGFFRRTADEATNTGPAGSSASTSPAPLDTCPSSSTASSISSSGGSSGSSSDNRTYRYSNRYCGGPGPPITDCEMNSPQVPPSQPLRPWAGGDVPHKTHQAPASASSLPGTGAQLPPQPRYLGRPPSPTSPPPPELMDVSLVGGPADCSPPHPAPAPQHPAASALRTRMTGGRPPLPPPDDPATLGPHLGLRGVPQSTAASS

[6] = molecular target: BMP2K (Homo sapiens, UniProt Q9NSY1); conditions: read-out: % inhibition
[7] = molecular target: CDC42BPA (Homo sapiens, UniProt Q5VT25); conditions: read-out: % inhibition
[8] = molecular target: CDC42BPG (Homo sapiens, UniProt Q6DT37); conditions: read-out: % inhibition
[9] = molecular target: CDC7 (Homo sapiens, UniProt O00311); conditions: read-out: % inhibition
[10] = molecular target: CDK19 (Homo sapiens, UniProt Q9BWU1); conditions: read-out: % inhibition
[11] = molecular target: CDK8 (Homo sapiens, UniProt P49336); conditions: read-out: % inhibition
[12] = molecular target: CLK1 (Homo sapiens, UniProt P49759); conditions: read-out: % inhibition
[13] = molecular target: CLK2 (Homo sapiens, UniProt P49760); conditions: read-out: % inhibition
[14] = molecular target: CLK4 (Homo sapiens, UniProt Q9HAZ1); conditions: read-out: % inhibition
CLK4, sequence (Q9HAZ1 whole entry): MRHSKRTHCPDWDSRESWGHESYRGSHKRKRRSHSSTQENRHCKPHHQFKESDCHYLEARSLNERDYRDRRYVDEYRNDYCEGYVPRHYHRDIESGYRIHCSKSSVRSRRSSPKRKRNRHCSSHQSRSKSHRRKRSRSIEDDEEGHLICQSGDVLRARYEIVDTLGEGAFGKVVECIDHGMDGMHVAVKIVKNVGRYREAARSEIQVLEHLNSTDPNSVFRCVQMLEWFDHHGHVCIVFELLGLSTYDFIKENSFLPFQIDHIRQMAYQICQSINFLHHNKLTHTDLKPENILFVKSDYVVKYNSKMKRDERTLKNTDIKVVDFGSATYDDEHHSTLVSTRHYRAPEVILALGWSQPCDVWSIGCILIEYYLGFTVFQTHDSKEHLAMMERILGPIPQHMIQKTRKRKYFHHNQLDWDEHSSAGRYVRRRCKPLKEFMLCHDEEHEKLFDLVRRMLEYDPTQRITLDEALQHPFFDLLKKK

[15] = molecular target: DAPK3 (Homo sapiens, UniProt O43293); conditions: read-out: % inhibition
[16] = molecular target: DMPK (Homo sapiens, UniProt Q09013); conditions: read-out: % inhibition
[17] = molecular target: DYRK1A (Homo sapiens, UniProt Q13627); conditions: read-out: % inhibition
[18] = molecular target: GSK3B (Homo sapiens, UniProt P49841); conditions: read-out: % inhibition
[19] = molecular target: HIPK1 (Homo sapiens, UniProt Q86Z02); conditions: read-out: % inhibition
[20] = molecular target: HIPK2 (Homo sapiens, UniProt Q9H2X6); conditions: read-out: % inhibition
HIPK2, sequence (Q9H2X6 whole entry): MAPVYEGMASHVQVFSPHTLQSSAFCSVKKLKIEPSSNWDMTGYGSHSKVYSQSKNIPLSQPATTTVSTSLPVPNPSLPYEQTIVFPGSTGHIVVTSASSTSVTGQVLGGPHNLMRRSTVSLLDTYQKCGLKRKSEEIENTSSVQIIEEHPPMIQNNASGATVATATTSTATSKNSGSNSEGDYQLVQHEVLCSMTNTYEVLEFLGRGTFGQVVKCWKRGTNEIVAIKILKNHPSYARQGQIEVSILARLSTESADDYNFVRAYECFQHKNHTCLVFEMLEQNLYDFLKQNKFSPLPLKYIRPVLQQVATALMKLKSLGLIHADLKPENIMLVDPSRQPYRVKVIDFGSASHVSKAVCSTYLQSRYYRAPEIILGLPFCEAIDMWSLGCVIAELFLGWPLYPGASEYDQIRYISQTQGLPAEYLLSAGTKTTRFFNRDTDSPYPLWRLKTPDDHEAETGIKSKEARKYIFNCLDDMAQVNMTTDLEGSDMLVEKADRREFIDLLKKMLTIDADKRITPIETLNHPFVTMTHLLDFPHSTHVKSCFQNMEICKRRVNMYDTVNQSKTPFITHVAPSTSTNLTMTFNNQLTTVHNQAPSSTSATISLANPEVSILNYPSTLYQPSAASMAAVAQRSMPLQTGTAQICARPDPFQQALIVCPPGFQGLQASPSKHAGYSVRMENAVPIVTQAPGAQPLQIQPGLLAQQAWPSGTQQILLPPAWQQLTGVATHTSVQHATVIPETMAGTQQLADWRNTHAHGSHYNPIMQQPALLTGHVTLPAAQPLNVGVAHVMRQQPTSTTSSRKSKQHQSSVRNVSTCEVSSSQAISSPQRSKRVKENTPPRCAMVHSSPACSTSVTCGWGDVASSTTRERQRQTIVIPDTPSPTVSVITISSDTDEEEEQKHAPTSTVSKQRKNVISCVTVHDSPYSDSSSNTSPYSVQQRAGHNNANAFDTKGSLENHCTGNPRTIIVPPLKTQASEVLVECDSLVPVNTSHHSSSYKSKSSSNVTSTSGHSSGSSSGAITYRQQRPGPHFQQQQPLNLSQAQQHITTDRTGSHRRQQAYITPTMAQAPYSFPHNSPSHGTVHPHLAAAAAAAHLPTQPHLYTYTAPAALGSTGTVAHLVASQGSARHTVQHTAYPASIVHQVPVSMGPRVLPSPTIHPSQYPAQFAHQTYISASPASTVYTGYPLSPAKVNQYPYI

[21] = molecular target: HIPK3 (Homo sapiens, UniProt Q9H422); conditions: read-out: % inhibition
[22] = molecular target: LRRK2 (Homo sapiens, UniProt Q5S007); conditions: read-out: % inhibition
[23] = molecular target: MAP3K7 (Homo sapiens, UniProt O43318); conditions: read-out: % inhibition
MAP3K7, sequence (O43318 whole entry): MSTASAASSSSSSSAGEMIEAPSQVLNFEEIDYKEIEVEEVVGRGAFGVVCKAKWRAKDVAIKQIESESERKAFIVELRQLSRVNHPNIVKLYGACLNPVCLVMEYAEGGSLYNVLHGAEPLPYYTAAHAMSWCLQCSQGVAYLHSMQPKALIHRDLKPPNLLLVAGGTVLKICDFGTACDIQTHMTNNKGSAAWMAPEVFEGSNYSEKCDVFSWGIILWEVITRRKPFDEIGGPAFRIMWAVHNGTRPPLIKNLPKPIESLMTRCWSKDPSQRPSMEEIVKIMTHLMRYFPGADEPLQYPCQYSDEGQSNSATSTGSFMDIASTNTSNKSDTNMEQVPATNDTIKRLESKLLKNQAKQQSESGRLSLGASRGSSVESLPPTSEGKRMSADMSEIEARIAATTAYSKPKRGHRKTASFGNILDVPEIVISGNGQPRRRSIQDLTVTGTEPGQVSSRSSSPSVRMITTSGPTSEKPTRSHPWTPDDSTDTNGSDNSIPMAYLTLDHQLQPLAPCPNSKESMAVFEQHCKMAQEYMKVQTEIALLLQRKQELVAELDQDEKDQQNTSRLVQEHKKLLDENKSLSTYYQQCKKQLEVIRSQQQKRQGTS

[24] = molecular target: MAP4K4 (Homo sapiens, UniProt O95819); conditions: read-out: % inhibition
[25] = molecular target: PAK4 (Homo sapiens, UniProt O96013); conditions: read-out: % inhibition
[26] = molecular target: PASK (Homo sapiens, UniProt Q96RG2); conditions: read-out: % inhibition
[27] = molecular target: PKN1 (Homo sapiens, UniProt Q16512); conditions: read-out: % inhibition
[28] = molecular target: PKN2 (Homo sapiens, UniProt Q16513); conditions: read-out: % inhibition
[29] = molecular target: PRKACB (Homo sapiens, UniProt P22694); conditions: read-out: % inhibition
[30] = molecular target: PRKCD (Homo sapiens, UniProt Q05655); conditions: read-out: % inhibition
[31] = molecular target: PRKCH (Homo sapiens, UniProt P24723); conditions: read-out: % inhibition
[32] = molecular target: PRKCQ (Homo sapiens, UniProt Q04759); conditions: read-out: % inhibition
[33] = molecular target: PRKG2 (Homo sapiens, UniProt Q13237); conditions: read-out: % inhibition
[34] = molecular target: PRKX (Homo sapiens, UniProt P51817); conditions: read-out: % inhibition
[35] = molecular target: T4, ROCK1; conditions: read-out: % inhibition
[36] = molecular target: ROCK2 (Homo sapiens, UniProt O75116); conditions: read-out: % inhibition
[37] = molecular target: TAOK1 (Homo sapiens, UniProt Q7L7X3); conditions: read-out: % inhibition
[38] = molecular target: TGFBR2 (Homo sapiens, UniProt P37173); conditions: read-out: % inhibition
TGFBR2, sequence (P37173 whole entry): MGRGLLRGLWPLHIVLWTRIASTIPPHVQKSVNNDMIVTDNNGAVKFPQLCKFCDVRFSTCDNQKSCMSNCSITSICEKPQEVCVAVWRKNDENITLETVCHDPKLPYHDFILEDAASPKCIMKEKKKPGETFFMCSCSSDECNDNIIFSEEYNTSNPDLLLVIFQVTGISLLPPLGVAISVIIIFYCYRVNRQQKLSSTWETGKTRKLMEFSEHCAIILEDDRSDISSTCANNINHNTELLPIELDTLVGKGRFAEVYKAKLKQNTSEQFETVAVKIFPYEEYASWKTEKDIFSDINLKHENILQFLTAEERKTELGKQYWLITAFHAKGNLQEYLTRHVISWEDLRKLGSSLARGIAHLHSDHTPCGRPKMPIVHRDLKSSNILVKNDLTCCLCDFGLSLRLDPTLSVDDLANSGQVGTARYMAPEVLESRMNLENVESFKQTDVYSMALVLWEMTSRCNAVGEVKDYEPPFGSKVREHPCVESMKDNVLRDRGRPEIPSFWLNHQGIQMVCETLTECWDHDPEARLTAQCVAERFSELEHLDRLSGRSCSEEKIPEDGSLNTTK

O=C(N=c1sccn1Cc1ccccc1)c1c[nH]c2ncccc12 [TRULI, N-(3-benzylthiazol-2(3H)-ylidene)-1H-pyrrolo[2,3-b]pyridine-3-carboxamide]
IC50 [1]: 1 µM
IC50 [2]: 0.06 µM
IC50 [3]: 0.014 µM
IC50 [4]: 0.088 µM
inhibition at 1 µM [5]: 81.5%
inhibition at 1 µM [6]: 86.3%
inhibition at 1 µM [7]: 97.2%
inhibition at 1 µM [8]: 83.7%
inhibition at 1 µM [9]: 99.1%
inhibition at 1 µM [10]: 90.2%
inhibition at 1 µM [11]: 88.8%
inhibition at 1 µM [12]: 78.1%
inhibition at 1 µM [13]: 92.8%
inhibition at 1 µM [14]: 102%
inhibition at 1 µM [15]: 77.1%
inhibition at 1 µM [16]: 97.9%
inhibition at 1 µM [17]: 85.8%
inhibition at 1 µM [18]: 92.7%
inhibition at 1 µM [19]: 86.1%
inhibition at 1 µM [20]: 94.2%
inhibition at 1 µM [21]: 95.8%
inhibition at 1 µM [22]: 81.3%
inhibition at 1 µM [23]: 74%
inhibition at 1 µM [24]: 77.5%
inhibition at 1 µM [25]: 83.4%
inhibition at 1 µM [26]: 85.8%
inhibition at 1 µM [27]: 77.7%
inhibition at 1 µM [28]: 89.7%
inhibition at 1 µM [29]: 92.9%
inhibition at 1 µM [30]: 78%
inhibition at 1 µM [31]: 90.4%
inhibition at 1 µM [32]: 99.2%
inhibition at 1 µM [33]: 79.1%
inhibition at 1 µM [34]: 88.1%
inhibition at 1 µM [35]: 79.2%
inhibition at 1 µM [36]: 84.1%
inhibition at 1 µM [37]: 76.4%
inhibition at 1 µM [38]: 81.3%

Source: publication PMC8149661, “Small-molecule inhibition of Lats kinases may promote Yap-dependent proliferation in postmitotic mammalian tissues” (Nature Communications, 2021)
